In patent US7396857B2, “Therapeutic combinations for the treatment or prevention of depression” (Wyeth, priority 2005, dated 2008):

Tests used:
Male Swiss Webster mice [1] = test: Tail suspension test; format: in vivo
Text: Compound 1, (7-(2,6-dichlorophenyl)-5-fluoro-2,3-dihydrobenzofuran-2-yl)methanamine, was used to exemplify the effectiveness of compounds of the present invention in the tail suspension test. While not a direct model of depression, the tail suspension test is an assay that can evaluate antidepressant-like effects of drugs. Clinically effective drugs such as Prozac (fluoxetine) are effective in this assay. Specifically, they decrease the amount of time the mice spend immobile after being hung upside down by their tails during the test. It is impossible to determine if a mouse is indeed depressed. However, the fact that clinically effective antidepressants reduce immobility lends predictive validity to the model.
Male Swiss Webster mice (Charles River) weighing 20-35 g were used throughout this study. They were housed in groups of five per cage in an AALAC-accredited facility that was maintained on a 12-h light dark cycle (lights on at 0600 h) and had free access to food and water. Experimental groups consisted of 12 mice, randomly assigned to treatment groups. All experiments were performed between 9:00 AM and noon in accordance to the Guide for the Care and Use of Laboratory Animals as adopted and promulgated by the National Institutes of Health (Pub. 85-23, 1985).
Solutions of Compound 1 and paroxetine were freshly prepared. Compound 1 was dissolved in saline and paroxetine was dissolved in distilled water. All drugs were injected i.p. at a volume of 10 ml/kg body weight. Combination treatments were cotreated, 30 minutes prior to the test.
The procedure followed in this study was a variant of the one originally described by Steru et al. (1985). […] The time spent immobile during a 6-minute test session was automatically recorded. […] Data collected were expressed as a mean of immobility time and statistical analysis was performed using a one-way ANOVA with least significant difference (LSD) post-hoc test.

Male Swiss Webster mice [2] = conditions: general statement on clinically effective drugs; cited from earlier work

## NCC1Cc2cc(F)cc(-c3c(Cl)cccc3Cl)c2O1 (stereo not shown) [Compound 1, (7-(2,6-dichlorophenyl)-5-fluoro-2,3-dihydrobenzofuran-2-yl)methanamine]
Male Swiss Webster mice [1]; Compound 1 0.1 mg/kg i.p. alone, 30 minutes prior to test, 6-minute session
  produced antidepressant-like effects alone: Neither

## Fc1ccc([C@@H]2CCNC[C@H]2COc2ccc3c(c2)OCO3)cc1 [paroxetine, trans-(−)-3-[(1,3-benzodioxol-5-yloxy)methyl]-4-(4-fluo-rophenyl)piperidine]
Male Swiss Webster mice [1]; paroxetine 10 mg/kg i.p. dosed alone
  decrease in immobility time: 5%
Male Swiss Webster mice [1]; paroxetine 30 mg/kg i.p. dosed alone
  decrease in immobility time: 4%

## CNCCC(Oc1ccc(C(F)(F)F)cc1)c1ccccc1 (stereo not shown) [Prozac, N-methyl-3-(p-trifluoromethylphenoxy)-3-phenylpropylamine]
Male Swiss Webster mice [2]
  effectiveness in the tail suspension assay (decrease of time spent immobile): effective
